Legend:
Assay type in all cases: in vivo
[1] = tested on: Amaranthus retoflexus (AMARE); assay: B1 Post-emergence efficacy Test 1; settings: post-emergence application, 1000 g/ha, evaluated after 13 days
Description: (§1) Seeds of a variety of test species are sown in standard soil in pots:—Solanum nigrum (SOLNI), Amaranthus retoflexus (AMARE), Setaria faberi (SETFA), Alopecurus myosuroides (ALOMY), Echinochloa crus-galli (ECHCG), Ipomoea hederacea (IPOHE), Lolium perenne (LOLPE). After 8 days cultivation (post-emergence) under controlled conditions in a glasshouse (at 24/16° C., day/night; 14 hours light; 65% humidity), the plants are sprayed with an aqueous spray solution derived from the formulation of the technical active ingredient in acetone/water (50:50) solution containing 0.5% Tween 20 (polyoxyethylene sorbitan monolaurate, CAS RN 9005-64-5). Compounds are applied at 1000 g/ha. The test plants are then grown in a glasshouse under controlled conditions in a glasshouse (at 24/16° C., day/night; 14 hours light; 65% humidity) and watered twice daily. After 13 days, the test is evaluated for the percentage damage caused to the plant. The biological activities are assessed on a five point scale (5=80-100%; 4=60-79%; 3=40-59%; 2=20-39%; 1=0-19%). A blank value in the table is indicative that the compound was not tested on that species.

[2] = tested on: Echinochloa crus-galli (ECHCG); assay: B1 Post-emergence efficacy Test 1; settings: post-emergence application, 1000 g/ha, evaluated after 13 days
Description: as §1

[3] = tested on: Ipomoea hederacea (IPOHE); assay: B1 Post-emergence efficacy Test 1; settings: post-emergence application, 1000 g/ha, evaluated after 13 days
Description: as §1

[4] = tested on: Lolium perenne (LOLPE); assay: B1 Post-emergence efficacy Test 1; settings: post-emergence application, 1000 g/ha, evaluated after 13 days
Description: as §1

[5] = tested on: Setaria faberi (SETFA); assay: B1 Post-emergence efficacy Test 1; settings: post-emergence application, 1000 g/ha, evaluated after 13 days
Description: as §1

[6] = tested on: Solanum nigrum (SOLNI); assay: B1 Post-emergence efficacy Test 1; settings: post-emergence application, 1000 g/ha, evaluated after 13 days
Description: as §1

[7] = tested on: cool season plant species; assay: B2 Post-emergence efficacy Test 2, cool season plant species; settings: 15 days after application, 0=no damage, 100=total kill
Description: Seeds of a variety of test species (see Table B1) were sown in standard soil in pots. After cultivation for 12 days (post-emergence) under controlled conditions in a glasshouse (at 24/18° C. or 20/16° C., at day/night; 16 hours light; 65% humidity), the plants were sprayed with an aqueous spray solution derived from the formulation of the technical active ingredient dissolved in IF50 (see Table B2 for composition) and adjuvant (Genapol XO80) was added to the spray solution at a rate of 0.2% v/v. [table] [table] After application, the test plants were grown in a glasshouse under controlled conditions (as above) and watered twice daily. Herbicidal activity was evaluated 15 days after application on a 0-100 scale. The results, where 0=no damage to test plant and 100=total kill of test plant are shown below in Tables 6 to 9.

## Cc1nn(C)c(=O)c(-c2c(F)ccc(Cl)c2CCc2ccc(C#N)cc2)c1O [Compound 1.024]
[1]
  percentage damage caused to the plant, five point scale, AMARE: 5 (5=80-100%)
[2]
  percentage damage caused to the plant, five point scale, ECHCG: 5 (5=80-100%)
[3]
  percentage damage caused to the plant, five point scale, IPOHE: 5 (5=80-100%)
[4]
  percentage damage caused to the plant, five point scale, LOLPE: 5 (5=80-100%)
[5]
  percentage damage caused to the plant, five point scale, SETFA: 5 (5=80-100%)
[6]
  percentage damage caused to the plant, five point scale, SOLNI: 5 (5=80-100%)
[7]; 15 g/Ha
  Herbicidal activity (0-100 scale) ALOMY: 10
  Herbicidal activity (0-100 scale) AVEFA: 10
  Herbicidal activity (0-100 scale) BEAVA: 70
  Herbicidal activity (0-100 scale) BROTE: 0
  Herbicidal activity (0-100 scale) BRSNN: 80
  Herbicidal activity (0-100 scale) CHEAL: 60
  Herbicidal activity (0-100 scale) HORVW: 0
  Herbicidal activity (0-100 scale) KCHSC: 0
  Herbicidal activity (0-100 scale) LOLPE: 10
  Herbicidal activity (0-100 scale) POAAN: 10
  Herbicidal activity (0-100 scale) POLCO: 80
  Herbicidal activity (0-100 scale) SINAR: 80
  Herbicidal activity (0-100 scale) STEME: 90
  Herbicidal activity (0-100 scale) TRZAW: 0
  Herbicidal activity (0-100 scale) VERPE: 80
[7]; 30 g/Ha
  Herbicidal activity (0-100 scale) ALOMY: 30
  Herbicidal activity (0-100 scale) AVEFA: 20
  Herbicidal activity (0-100 scale) BEAVA: 70
  Herbicidal activity (0-100 scale) BROTE: 0
  Herbicidal activity (0-100 scale) BRSNN: 90
  Herbicidal activity (0-100 scale) CHEAL: 90
  Herbicidal activity (0-100 scale) GALAP: 20
  Herbicidal activity (0-100 scale) HORVW: 10
  Herbicidal activity (0-100 scale) KCHSC: 0
  Herbicidal activity (0-100 scale) LOLPE: 70
  Herbicidal activity (0-100 scale) POAAN: 20
  Herbicidal activity (0-100 scale) SINAR: 80
  Herbicidal activity (0-100 scale) STEME: 90
  Herbicidal activity (0-100 scale) TRZAW: 0
  Herbicidal activity (0-100 scale) VERPE: 80
[7]; 60 g/Ha
  Herbicidal activity (0-100 scale) ALOMY: 50
  Herbicidal activity (0-100 scale) AVEFA: 30
  Herbicidal activity (0-100 scale) BEAVA: 80
  Herbicidal activity (0-100 scale) BROTE: 10
  Herbicidal activity (0-100 scale) BRSNN: 90
  Herbicidal activity (0-100 scale) CHEAL: 90
  Herbicidal activity (0-100 scale) GALAP: 20
  Herbicidal activity (0-100 scale) HORVW: 10
  Herbicidal activity (0-100 scale) KCHSC: 0
  Herbicidal activity (0-100 scale) LOLPE: 70
  Herbicidal activity (0-100 scale) POAAN: 30
  Herbicidal activity (0-100 scale) POLCO: 90
  Herbicidal activity (0-100 scale) SINAR: 80
  Herbicidal activity (0-100 scale) STEME: 90
  Herbicidal activity (0-100 scale) TRZAW: 20
  Herbicidal activity (0-100 scale) VERPE: 90
[7]; 125 g/Ha
  Herbicidal activity (0-100 scale) ALOMY: 70
  Herbicidal activity (0-100 scale) AVEFA: 60
  Herbicidal activity (0-100 scale) BEAVA: 80
  Herbicidal activity (0-100 scale) BROTE: 20
  Herbicidal activity (0-100 scale) BRSNN: 90
  Herbicidal activity (0-100 scale) CHEAL: 90
  Herbicidal activity (0-100 scale) GALAP: 60
  Herbicidal activity (0-100 scale) HORVW: 10
  Herbicidal activity (0-100 scale) KCHSC: 10
  Herbicidal activity (0-100 scale) LOLPE: 90
  Herbicidal activity (0-100 scale) POAAN: 80
  Herbicidal activity (0-100 scale) POLCO: 90
  Herbicidal activity (0-100 scale) STEME: 90
  Herbicidal activity (0-100 scale) TRZAW: 30
  Herbicidal activity (0-100 scale) VERPE: 80
[7]; 250 g/Ha
  Herbicidal activity (0-100 scale) ALOMY: 70
  Herbicidal activity (0-100 scale) AVEFA: 70
  Herbicidal activity (0-100 scale) BEAVA: 80
  Herbicidal activity (0-100 scale) BROTE: 40
  Herbicidal activity (0-100 scale) BRSNN: 90
  Herbicidal activity (0-100 scale) CHEAL: 90
  Herbicidal activity (0-100 scale) GALAP: 90
  Herbicidal activity (0-100 scale) HORVW: 10
  Herbicidal activity (0-100 scale) KCHSC: 10
  Herbicidal activity (0-100 scale) LOLPE: 90
  Herbicidal activity (0-100 scale) POAAN: 80
  Herbicidal activity (0-100 scale) POLCO: 90
  Herbicidal activity (0-100 scale) SINAR: 90
  Herbicidal activity (0-100 scale) STEME: 90
  Herbicidal activity (0-100 scale) TRZAW: 60
  Herbicidal activity (0-100 scale) VERPE: 100
[7]; 500 g/Ha
  Herbicidal activity (0-100 scale) ALOMY: 70
  Herbicidal activity (0-100 scale) AVEFA: 80
  Herbicidal activity (0-100 scale) BEAVA: 100
  Herbicidal activity (0-100 scale) BROTE: 70
  Herbicidal activity (0-100 scale) BRSNN: 90
  Herbicidal activity (0-100 scale) CHEAL: 100
  Herbicidal activity (0-100 scale) GALAP: 90
  Herbicidal activity (0-100 scale) HORVW: 20
  Herbicidal activity (0-100 scale) KCHSC: 20
  Herbicidal activity (0-100 scale) LOLPE: 90
  Herbicidal activity (0-100 scale) POAAN: 90
  Herbicidal activity (0-100 scale) POLCO: 100
  Herbicidal activity (0-100 scale) SINAR: 100
  Herbicidal activity (0-100 scale) STEME: 100
  Herbicidal activity (0-100 scale) TRZAW: 70
  Herbicidal activity (0-100 scale) VERPE: 100

— patent publication US12162840B2, “Herbicidal compositions” (SYNGENTA PARTICIPATIONS AG, priority 2018, dated 2024)
